Reference: patent publication US7862798B2, “Vitamin-targeted imaging agents” (Endocyte, Inc., priority 2002, dated 2011)
Where “and” joins values, the source holds several entries; their conditions need not be identical. Identical values can stand only once. Entries after “also recorded” stand apart in the source; their conditions may differ.

Assays:
FR-positive KB cells = assay: Time-dependent cell uptake; format: cell-based, human; parameters: time to half-maximal saturation point: dose or concentration left out as unconfirmed
Experimental: KB cells were seeded in 12-well Falcon plates and allowed to form sub-confluent monolayers overnight. Following one rinse with 1 mL of fresh FFRPMI/HIFCS, each well received 1 mL of FFRPMI/HIFCS containing 10 nM ^99mTc-EC20. Cells were incubated for predetermined times at 37° C. and then rinsed four times with 1 mL of ice-cold PBS, pH 7.4. The cell monolayers were dissolved in 0.5 mL of PBS, pH 7.4 containing 1% sodium dodecyl sulfate for 15 min at room temperature and then counted for radioactivity using a Packard gamma counter. The protein in each sample was quantitated using a BioRad DC Protein Assay kit, and cellular protein values were converted to cell number using the conversion factor of 2.23×10^−7 mg protein per cell. Final tabulated values were expressed in terms of molecules of EC20 per cell.
The kinetics of ^99mTc-EC20 uptake into FR-positive KB cells was quantitatively measured using this protocol.

FR-positive M109 tumors = assay: Gamma scintigraphy; format: in vivo, Balb/c mice; details: 4 hr after i.v. administration, M109 tumor-bearing Balb/c mouse
Experimental: Whole body image acquisition was performed for 1 minute at a count rate of 50-75,000 counts per minute using a Technicare Omega 500 Sigma 410 Radioisotope Gamma Camera. All data were analyzed using a Medasys MS-DOS-based computer equipped with Medasys Pinnacle software.

[1] = Urinary excretion and metabolism (HPLC speciation of urine); format: in vivo, Balb/c mice
Experimental: (§1) The urinary HPLC speciation profile of ^99mTc-EC20 was obtained using Balb/c mice. Mice (˜20 g each) were injected with 1 mCi (6.7 nmol) of ^99mTc-EC20 via a lateral tail vein. Following a 1, 4, or 6 hour time period, groups of two mice were euthanized by CO2 asphyxiation and urine was collected. After filtration through a GV13 Millex filter, the radiochemical speciation was assessed using an HPLC system equipped with a Nova-Pak C18 3.9×150 mm column and a radiochemical detector. The system was isocratically eluted with 20% methanol containing 0.1% TFA at a flow rate of 1 mL/minute.

[2] = Serum protein binding (ultrafiltration), rat serum; format: in vitro ADME; details: room temperature, ultrafiltration 30,000 NMWL
Experimental: Fresh rat serum, and commercial male human serum (type AB donors, Sigma Chemical Co.) were used to evaluate in vitro binding of ^99mTc˜EC20 to serum proteins. One minute after ^99mTc-EC20 was mixed with 1 mL of serum at room temperature, 0.3 mL of the serum solution was transferred to a clean Amicon Centrifree® ultrafiltration device (30,000 NMWL) in triplicate. Within one minute of loading the centrifuge with the serum solution, the device was spun at 1000×g for 20 minutes at 20° C. 50 μL samples of the original solution, and of the filtrate from each device, was transferred to a clean tube and counted in an automatic gamma counter. A control solution of ^99mTc˜EC20 mixed with 1 mL of normal saline was ultrafiltered in an identical fashion. The percentage of free ^99mTc was calculated for each of the three samples.

[3] = Radiochemical stability by HPLC; format: physicochemical; details: room temperature, protected from light, at least 24 hours
Experimental: The radiochemical stability of the radioactive drug substance was determined by HPLC after storing at room temperature protected from light for up to 24 hours. Samples of the ^99mTc-EC20 solution (20 μL) were analyzed using an HPLC system consisting of a Waters 600E Multisolvent Delivery System and 490 UV detector, a Bioscan EC-3200 radiodetector, Laura v1.5 radiochromatogram software, and a Waters Nova-Pak C18 (3.9×150 mm) column. Injected samples were eluted isocratically using an aqueous mobile phase containing 20% methanol and 0.1% trifluoroacetic acid at a flow rate of 1 mL/min. The HPLC analysis was monitored with both the UV detector (280 nm) and the gamma radiodetector.

[4] = HPLC speciation of the 99mTc-EC20 standard in saline over 6 hr; format: physicochemical; details: for Area Percent, Sum C and D / Area Percent, peak A (pertechnetate) / Area Percent, peak B (unknown) / Area Percent, peak C (isomer 1) / Area Percent, peak D (isomer 2): 99mTc-EC20 Standard
Experimental: as §1
It was previously determined that the primary elimination route for ^111In-DTPA-Folate was via the urine. […] As shown in Table 4 (below), the radiochemical purity of the standard (sum of peaks C and D presumably corresponding to the syn and anti ^99mTc-EC20) remained constant at ˜93% over the 6 hr duration of this experiment. The amount of free ^99mTc in the standard (peak A) was ˜2%.

[NH-][C@@H](CNC(=O)CC[C@@H](NC(=O)c1ccc(NCc2cnc3nc(N)[nH]c(=O)c3n2)cc1)C(=O)O)C(=O)[N-][C@@H](CC(=O)O)C(=O)[N-][C@@H](C[S-])C(=O)O.[O]=[Tc+4] [^99mTc-EC20]
time to half-maximal cell association (FR-positive KB cells; 10 nM, 37° C.): 9 min
molecules of EC20 cell-associated at steady state (FR-positive KB cells; 10 nM, 37° C., KB cells): approximately 3.2 million
time to steady-state uptake (FR-positive KB cells; 10 nM, 37° C., KB cells): within two hours
time to half-maximal saturation point (FR-positive KB cells; 10-fold higher concentration): 37 s
whole-body gamma image, localization of radiotracer (FR-positive M109 tumors): localizes the gamma radiation to the two kidneys (K) and the M109 tumor mass; also recorded: Only the kidneys (K) and tumor (T) exhibit significant accumulation
form excreted into the urine ([1]; Balb/c mice, i.v.): predominately excreted into the urine in an unmodified form
proportion of parent drug among radioactive species recovered in urine ([1]; throughout four hours post-injection): approximately 90%
Area Percent, Sum C and D (intact 99mTc-EC20) ([1]; urine samples, 1 hr, two mice): 89.2 Area Percent and 91.1 Area Percent
Area Percent, peak A (pertechnetate) ([1]; urine samples, 1 hr, two mice): 8.3 Area Percent and 6.3 Area Percent
Area Percent, peak B (unknown) ([1]; urine samples, 1 hr, two mice): 2.5 Area Percent and 2.6 Area Percent
Area Percent, peak C (isomer 1) ([1]; urine samples, 1 hr, two mice): 20.4 Area Percent and 18.1 Area Percent
Area Percent, peak D (isomer 2) ([1]; urine samples, 1 hr, two mice): 68.8 Area Percent and 73 Area Percent
Area Percent, Sum C and D (intact 99mTc-EC20) ([1]; urine samples, 4 hr, two mice): 85.2 Area Percent and 89.8 Area Percent
Area Percent, peak A (pertechnetate) ([1]; urine samples, 4 hr, two mice): 9.4 Area Percent and 10.2 Area Percent
Area Percent, peak C (isomer 1) ([1]; urine samples, 4 hr, two mice): 7.3 Area Percent and 11.1 Area Percent
Area Percent, peak D (isomer 2) ([1]; urine samples, 4 hr, two mice): 77.9 Area Percent and 78.7 Area Percent
associated with the >30 kDa serum protein fraction [2]: 69%
radiochemical purity on storage [3]: greater than 90%
Area Percent, Sum C and D ([4]; 0 hr): 93.5 Area Percent
Area Percent, peak A (pertechnetate) ([4]; 0 hr): 2 Area Percent
Area Percent, peak B (unknown) ([4]; 0 hr): 4.5 Area Percent
Area Percent, peak C (isomer 1) ([4]; 0 hr): 15.5 Area Percent
Area Percent, peak D (isomer 2) ([4]; 0 hr): 78 Area Percent
Area Percent, Sum C and D ([4]; 1 hr): 93.4 Area Percent
Area Percent, peak A (pertechnetate) ([4]; 1 hr): 2.1 Area Percent
Area Percent, peak B (unknown) ([4]; 1 hr): 4.5 Area Percent
Area Percent, peak C (isomer 1) ([4]; 1 hr): 15.7 Area Percent
Area Percent, peak D (isomer 2) ([4]; 1 hr): 77.7 Area Percent
Area Percent, Sum C and D ([4]; 6 hr): 93.4 Area Percent
Area Percent, peak A (pertechnetate) ([4]; 6 hr): 1.8 Area Percent
Area Percent, peak B (unknown) ([4]; 6 hr): 4.8 Area Percent
Area Percent, peak C (isomer 1) ([4]; 6 hr): 15.9 Area Percent
Area Percent, peak D (isomer 2) ([4]; 6 hr): 77.5 Area Percent
radiochemical purity of the standard (sum of peaks C and D) ([4]; constant over the 6 hr duration, saline solution): ~93%
free 99mTc in the standard (peak A) ([4]; saline solution): ~2%
